One data set addresses Nav 1.5 (Homo sapiens (Human), UniProt Q14524). Description: Inhibition of sodium channels, Red Membrane Potential Dye FLIPR assay, veratridine depolarization. Format: cell-based. The note with it: HEK-293 cells overexpressing the channel; for inhibition at 10 µM: HEK-293 cells overexpressing Nav 1.5.
In the next data set the target is Nav 1.7 (Homo sapiens (Human), UniProt Q15858). The data set is described as above. The note with it: HEK-293 cells overexpressing the channel; read-out: Nav1.7 IC50. Format: cell-based.
Chain of Nav 1.7 (Q15858 whole entry): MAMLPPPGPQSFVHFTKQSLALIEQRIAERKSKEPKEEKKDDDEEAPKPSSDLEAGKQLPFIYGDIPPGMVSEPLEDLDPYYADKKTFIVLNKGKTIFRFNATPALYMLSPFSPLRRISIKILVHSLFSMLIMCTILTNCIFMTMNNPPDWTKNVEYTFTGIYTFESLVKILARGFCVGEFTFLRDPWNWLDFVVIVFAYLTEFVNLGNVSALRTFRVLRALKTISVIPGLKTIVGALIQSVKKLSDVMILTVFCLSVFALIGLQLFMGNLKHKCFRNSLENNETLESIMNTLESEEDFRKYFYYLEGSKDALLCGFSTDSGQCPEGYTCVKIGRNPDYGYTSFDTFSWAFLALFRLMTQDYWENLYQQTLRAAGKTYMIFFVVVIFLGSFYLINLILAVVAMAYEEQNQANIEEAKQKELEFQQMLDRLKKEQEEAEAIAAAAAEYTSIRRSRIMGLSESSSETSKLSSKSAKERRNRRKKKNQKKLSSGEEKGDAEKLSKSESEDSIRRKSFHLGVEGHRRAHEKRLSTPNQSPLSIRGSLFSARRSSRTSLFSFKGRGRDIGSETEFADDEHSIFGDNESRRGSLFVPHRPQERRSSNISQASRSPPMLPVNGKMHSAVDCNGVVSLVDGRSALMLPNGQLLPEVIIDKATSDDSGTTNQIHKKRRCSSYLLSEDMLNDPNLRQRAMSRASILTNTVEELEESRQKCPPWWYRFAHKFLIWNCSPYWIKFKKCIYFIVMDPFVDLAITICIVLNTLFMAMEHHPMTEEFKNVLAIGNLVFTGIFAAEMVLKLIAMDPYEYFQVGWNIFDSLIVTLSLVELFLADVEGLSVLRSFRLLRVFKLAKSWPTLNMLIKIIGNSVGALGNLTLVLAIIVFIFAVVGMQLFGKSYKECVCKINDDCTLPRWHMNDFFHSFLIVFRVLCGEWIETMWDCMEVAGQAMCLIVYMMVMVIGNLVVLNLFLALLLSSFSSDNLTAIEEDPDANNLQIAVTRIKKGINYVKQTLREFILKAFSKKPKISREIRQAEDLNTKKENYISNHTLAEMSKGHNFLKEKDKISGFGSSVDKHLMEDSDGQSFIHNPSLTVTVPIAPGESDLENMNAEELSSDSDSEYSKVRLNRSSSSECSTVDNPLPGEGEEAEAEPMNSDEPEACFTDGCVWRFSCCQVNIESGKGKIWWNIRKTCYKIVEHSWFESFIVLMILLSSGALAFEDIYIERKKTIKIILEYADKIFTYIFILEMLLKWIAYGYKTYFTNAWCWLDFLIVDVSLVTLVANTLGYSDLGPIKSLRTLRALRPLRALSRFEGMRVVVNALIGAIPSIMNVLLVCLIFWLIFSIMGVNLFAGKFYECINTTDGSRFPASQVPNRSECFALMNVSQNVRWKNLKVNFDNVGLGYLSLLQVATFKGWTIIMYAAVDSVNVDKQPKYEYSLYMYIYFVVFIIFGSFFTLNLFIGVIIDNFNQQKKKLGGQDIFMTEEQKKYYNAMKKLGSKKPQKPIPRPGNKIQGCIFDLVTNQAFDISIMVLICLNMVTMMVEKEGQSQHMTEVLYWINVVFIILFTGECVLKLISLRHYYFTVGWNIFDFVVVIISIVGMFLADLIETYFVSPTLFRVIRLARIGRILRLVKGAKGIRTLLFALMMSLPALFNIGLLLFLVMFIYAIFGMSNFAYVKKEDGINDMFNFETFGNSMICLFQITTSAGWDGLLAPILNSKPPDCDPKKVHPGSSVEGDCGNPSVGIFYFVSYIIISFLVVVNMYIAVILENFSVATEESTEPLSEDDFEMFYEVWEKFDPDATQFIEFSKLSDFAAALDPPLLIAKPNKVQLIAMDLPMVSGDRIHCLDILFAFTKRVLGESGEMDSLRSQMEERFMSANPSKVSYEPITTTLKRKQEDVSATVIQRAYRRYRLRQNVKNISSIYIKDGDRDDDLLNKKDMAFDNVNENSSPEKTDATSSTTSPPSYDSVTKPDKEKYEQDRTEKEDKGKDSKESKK
Setting [1] is: read-out: Nav1.5 IC50 (bound given in μM).

Where two headings read alike, the source gives them in different places.

Chain of Nav 1.5 (Q14524 whole entry): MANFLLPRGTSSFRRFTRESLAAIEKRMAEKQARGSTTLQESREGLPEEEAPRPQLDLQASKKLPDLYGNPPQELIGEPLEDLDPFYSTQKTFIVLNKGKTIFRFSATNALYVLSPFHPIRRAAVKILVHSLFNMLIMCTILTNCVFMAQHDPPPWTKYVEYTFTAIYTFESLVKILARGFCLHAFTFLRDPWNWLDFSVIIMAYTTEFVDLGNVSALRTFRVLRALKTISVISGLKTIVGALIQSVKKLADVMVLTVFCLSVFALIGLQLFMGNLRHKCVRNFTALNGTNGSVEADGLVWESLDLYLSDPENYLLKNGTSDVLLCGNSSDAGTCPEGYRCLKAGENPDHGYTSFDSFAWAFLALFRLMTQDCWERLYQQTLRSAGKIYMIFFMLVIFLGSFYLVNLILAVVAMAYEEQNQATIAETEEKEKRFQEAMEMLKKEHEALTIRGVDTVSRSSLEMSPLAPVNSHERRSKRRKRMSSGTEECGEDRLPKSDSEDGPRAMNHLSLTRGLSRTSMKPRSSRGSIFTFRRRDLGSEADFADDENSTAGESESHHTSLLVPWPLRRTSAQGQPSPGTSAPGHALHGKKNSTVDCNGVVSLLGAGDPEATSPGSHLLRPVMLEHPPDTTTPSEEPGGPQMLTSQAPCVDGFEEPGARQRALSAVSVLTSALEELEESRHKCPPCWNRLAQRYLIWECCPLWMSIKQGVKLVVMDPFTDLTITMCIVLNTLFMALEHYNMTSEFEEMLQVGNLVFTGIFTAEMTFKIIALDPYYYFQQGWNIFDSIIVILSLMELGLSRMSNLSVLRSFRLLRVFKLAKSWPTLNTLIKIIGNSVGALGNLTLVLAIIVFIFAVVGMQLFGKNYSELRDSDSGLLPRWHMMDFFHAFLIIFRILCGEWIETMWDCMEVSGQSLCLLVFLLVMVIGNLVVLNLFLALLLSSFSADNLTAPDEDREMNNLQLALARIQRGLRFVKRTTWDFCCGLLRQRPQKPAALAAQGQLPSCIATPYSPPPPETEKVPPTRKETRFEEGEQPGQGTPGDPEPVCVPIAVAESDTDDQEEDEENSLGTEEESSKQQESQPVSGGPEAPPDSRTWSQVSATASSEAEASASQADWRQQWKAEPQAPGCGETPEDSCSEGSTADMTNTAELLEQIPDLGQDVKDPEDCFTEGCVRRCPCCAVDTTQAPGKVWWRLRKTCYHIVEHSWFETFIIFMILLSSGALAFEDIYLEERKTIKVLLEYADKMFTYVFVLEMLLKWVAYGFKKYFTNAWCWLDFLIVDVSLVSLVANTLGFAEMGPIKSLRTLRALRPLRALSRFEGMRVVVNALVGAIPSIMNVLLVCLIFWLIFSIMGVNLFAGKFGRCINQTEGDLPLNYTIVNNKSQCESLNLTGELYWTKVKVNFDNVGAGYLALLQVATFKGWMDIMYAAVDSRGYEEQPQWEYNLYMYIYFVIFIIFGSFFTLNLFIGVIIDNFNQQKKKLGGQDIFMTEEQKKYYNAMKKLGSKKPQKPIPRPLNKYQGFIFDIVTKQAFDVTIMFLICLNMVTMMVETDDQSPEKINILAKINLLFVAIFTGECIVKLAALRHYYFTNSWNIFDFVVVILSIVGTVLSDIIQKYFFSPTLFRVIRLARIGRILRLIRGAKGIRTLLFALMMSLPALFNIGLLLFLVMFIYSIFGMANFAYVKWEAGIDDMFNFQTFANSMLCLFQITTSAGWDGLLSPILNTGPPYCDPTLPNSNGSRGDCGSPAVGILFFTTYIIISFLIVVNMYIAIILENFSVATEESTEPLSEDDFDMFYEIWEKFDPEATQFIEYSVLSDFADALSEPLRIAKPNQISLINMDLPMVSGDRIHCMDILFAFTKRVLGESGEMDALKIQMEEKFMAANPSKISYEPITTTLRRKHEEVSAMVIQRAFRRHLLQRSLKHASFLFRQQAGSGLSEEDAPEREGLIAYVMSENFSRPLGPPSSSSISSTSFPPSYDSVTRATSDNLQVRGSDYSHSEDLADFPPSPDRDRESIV

For orientation: inhibition means the share of the control response that was lost under treatment. Low readings indicate a response near the control, high ones a response far below the control. By IC50 is commonly meant the concentration at which inhibition is half-maximal. Take `O=S(=O)(Nc1ncccn1)c1ccc2c(c1)OCC[C@@H]2c1ccc(C(F)(F)F)cc1-c1nccs1` (racemic) [Example 93, (R/S)—N-(pyrimidin-2-yl)-4-(2-(thiazol-2-yl)-4-(trifluoromethyl)phenyl)chroman-7-sulfonamide]: the inhibition at 10 µM against Nav 1.5 was determined as 56%. Moreover, the IC50 at Nav 1.7 was 0.004 µM.

Take `O=S(=O)(Nc1ccncn1)c1ccc2c(c1)OCC[C@@H]2c1ccc(C(F)(F)F)cc1-c1nccs1` (racemic) [Example 94, (R/S)—N-(pyrimidin-4-yl)-4-(2-(thiazol-2-yl)-4-(trifluoromethyl)phenyl)chroman-7-sulfonamide]: 10 µM produced 51% inhibition at Nav 1.5. The IC50 at Nav 1.7 worked out at 0.003 µM.

For `O=S(=O)(Nc1cccnn1)c1ccc2c(c1)OCC[C@@H]2c1ccc(C(F)(F)F)cc1-c1nccs1` (racemic) [Example 95, (R/S)—N-(pyridazin-3-yl)-4-(2-(thiazol-2-yl)-4-(trifluoromethyl)phenyl)chroman-7-sulfonamide], testing at 10 µM against Nav 1.5 gave an inhibition of 74%. The half-maximal inhibitory concentration (IC50) at Nav 1.7 is 0.011 µM.

At Nav 1.5, `O=S(=O)(Nc1cccc(F)n1)c1ccc2c(c1)OCC[C@@H]2c1ccc(C(F)(F)F)cc1-c1nccs1` (racemic) [Example 96, (R/S)—N-(6-fluoropyridin-2-yl)-4-(2-(thiazol-2-yl)-4-(trifluoromethyl)phenyl)chroman-7-sulfonamide] gave an inhibition at 10 µM of 70%. On Nav 1.7, the IC50 was found to be 0.008 µM.

Consider `CCOc1ccc(-c2cc(C(F)(F)F)ccc2[C@H]2CCOc3cc(S(=O)(=O)Nc4ncccn4)ccc32)cn1` (racemic) [Example 103, (R/S)-4-(2-(6-ethoxypyridin-3-yl)-4-(trifluoromethyl)phenyl)-N-(pyrimidin-2-yl)chroman-7-sulfonamide], for which the IC50 on Nav 1.5 (read-out: Nav1.5 IC50) turned out to be 0.932 µM; on Nav 1.7, 0.01 µM.

For `O=S(=O)(Nc1ncccn1)c1ccc2c(c1)OCC[C@@H]2c1ccc(C(F)(F)F)cc1Cl` (racemic) [Example 104, (S/R)-4-(2-Chloro-4-(trifluoromethyl)phenyl)-N-(pyrimidin-2-yl)chroman-7-sulfonamide], the IC50 on Nav 1.5 (setting [1]) was above 10 µM; on Nav 1.7, 0.184 µM.

As to `O=S(=O)(Nc1ncc(F)cn1)c1ccc2c(c1)OCC[C@@H]2c1ccc(C(F)(F)F)cc1Cl` (racemic) [Example 105, (S/R)-4-(2-Chloro-4-(trifluoromethyl)phenyl)-N-(5-fluoropyrimidin-2-yl)chroman-7-sulfonamide], the IC50 on Nav 1.5 (setting [1]) is above 10 µM; on Nav 1.7, 1.51 µM.

Take `O=S(=O)(Nc1ccncn1)c1ccc2c(c1)OCC[C@@H]2c1ccc(C(F)(F)F)cc1Cl` (racemic) [Example 106, (S/R)-4-(2-Chloro-4-(trifluoromethyl)phenyl)-N-(pyrimidin-4-yl)chroman-7-sulfonamide]: the concentration for half-maximal inhibition (IC50) at Nav 1.5 (setting [1]) is above 10 µM; at Nav 1.7, 0.147 µM.

Regarding `O=S(=O)(Nc1cccnn1)c1ccc2c(c1)OCC[C@@H]2c1ccc(C(F)(F)F)cc1Cl` (racemic) [Example 107, (S/R)-4-(2-Chloro-4-(trifluoromethyl)phenyl)-N-(pyridazin-3-yl)chroman-7-sulfonamide], the IC50 on Nav 1.5 (setting [1]) is above 10 µM; at Nav 1.7, 0.229 µM.

As for `O=S(=O)(Nc1cccc(F)n1)c1ccc2c(c1)OCC[C@@H]2c1ccc(C(F)(F)F)cc1Cl` (racemic) [Example 108, (S/R)-4-(2-chloro-4-(trifluoromethyl)phenyl)-N-(6-fluoropyridin-2-yl)chroman-7-sulfonamide], the IC50 was 2.18 µM on Nav 1.5 (read-out: Nav1.5 IC50) and 0.057 µM on Nav 1.7.

Consider `O=C1CCCN1c1cc(C(F)(F)F)ccc1[C@H]1CCOc2cc(S(=O)(=O)Nc3ncccn3)ccc21` (racemic) [Example 115, (R/S)-4-(2-(2-oxopyrrolidin-1-yl)-4-(trifluoromethyl)phenyl)-N-(pyrimidin-2-yl)chroman-7-sulfonamide], for which the IC50 is above 10 µM on Nav 1.5 (setting [1]) and 0.041 µM on Nav 1.7.

`O=C1CCCN1c1cc(C(F)(F)F)ccc1[C@H]1CCOc2cc(S(=O)(=O)Nc3ccncn3)ccc21` (racemic) [Example 116, (R/S)-4-(2-(2-oxopyrrolidin-1-yl)-4-(trifluoromethyl)phenyl)-N-(pyrimidin-4-yl)chroman-7-sulfonamide]: the IC50 was above 10 µM on Nav 1.5 (setting [1]) and 1.96 µM at Nav 1.7.

On to `O=C1CCCN1c1cc(C(F)(F)F)ccc1[C@H]1CCOc2cc(S(=O)(=O)Nc3cccnn3)ccc21` (racemic) [Example 117, (R/S)-4-(2-(2-oxopyrrolidin-1-yl)-4-(trifluoromethyl)phenyl)-N-(pyridazin-3-yl)chromane-7-sulfonamide], for which the IC50 on Nav 1.5 (setting [1]) was above 10 µM; at Nav 1.7, 0.106 µM.

`O=S(=O)(Nc1cccnn1)c1ccc2c(c1)OCC[C@@H]2c1ccc(C(F)(F)F)cc1N1CCOCC1` (racemic) [Example 122, (R/S)-4-(2-morpholino-4-(trifluoromethyl)phenyl)-N-(pyridazin-3-yl)chroman-7-sulfonamide] displayed an inhibition at 10 µM against Nav 1.5 of 54%. Moreover, the IC50 at Nav 1.7 was 0.038 µM.

For the molecule `COCCOc1cc(C(F)(F)F)ccc1[C@H]1CCOc2cc(S(=O)(=O)Nc3ncc(F)cn3)ccc21` (racemic) [Example 126, (R/S)—N-(5-fluoropyrimidin-2-yl)-4-(2-(2-methoxyethoxy)-4-(trifluoromethyl)phenyl)chroman-7-sulfonamide], the IC50 on Nav 1.5 (setting [1]) is above 10 µM; on Nav 1.7, 0.14 µM.

As for `COCCOc1cc(C(F)(F)F)ccc1[C@H]1CCOc2cc(S(=O)(=O)Nc3ccncn3)ccc21` (racemic) [Example 127, (R/S)-4-(2-(2-methoxyethoxy)-4-(trifluoromethyl)phenyl)-N-(pyrimidin-4-yl)chroman-7-sulfonamide], the inhibition at 10 µM against Nav 1.5 turned out to be 37%. Also, the IC50 at Nav 1.7 came out at 0.004 µM.

On to `COCCOc1cc(C(F)(F)F)ccc1[C@H]1CCOc2cc(S(=O)(=O)Nc3cccnn3)ccc21` (racemic) [Example 128, (R/S)-4-(2-(2-methoxyethoxy)-4-(trifluoromethyl)phenyl)-N-(pyridazin-3-yl)chroman-7-sulfonamide], for which the inhibition at 10 µM on Nav 1.5 turned out to be 55%. Moreover, the concentration for half-maximal inhibition (IC50) on Nav 1.7 came out at 0.145 µM.

Take `COCCOc1cc(C(F)(F)F)ccc1[C@H]1CCOc2cc(S(=O)(=O)Nc3cccc(F)n3)ccc21` (racemic) [Example 129, (R/S)—N-(6-fluoropyridin-2-yl)-4-(2-(2-methoxyethoxy)-4-(trifluoromethyl)phenyl)chroman-7-sulfonamide]: on Nav 1.5, the inhibition at 10 µM came to 62%. In addition, at Nav 1.7, the IC50 was 0.016 µM.

On to `COCCCOc1cc(C(F)(F)F)ccc1[C@H]1CCOc2cc(S(=O)(=O)Nc3ncc(F)cn3)ccc21` (racemic) [Example 132, (R/S)—N-(5-fluoropyrimidin-2-yl)-4-(2-(3-methoxypropoxy)-4-(trifluoromethyl)phenyl)chroman-7-sulfonamide], for which the half-inhibitory concentration (IC50) at Nav 1.5 (setting [1]) was above 10 µM; at Nav 1.7, 0.163 µM.

As for `COCCCOc1cc(C(F)(F)F)ccc1[C@H]1CCOc2cc(S(=O)(=O)Nc3cccnn3)ccc21` (racemic) [Example 133, (R/S)-4-(2-(3-methoxypropoxy)-4-(trifluoromethyl)phenyl)-N-(pyridazin-3-yl)chroman-7-sulfonamide], the inhibition at 10 µM against Nav 1.5 worked out at 66%. Moreover, the IC50 on Nav 1.7 worked out at 0.128 µM.

Take `COCCCOc1cc(C(F)(F)F)ccc1[C@H]1CCOc2cc(S(=O)(=O)Nc3cccc(F)n3)ccc21` (racemic) [Example 134, (R/S)—N-(6-fluoropyridin-2-yl)-4-(2-(3-methoxypropoxy)-4-(trifluoromethyl)phenyl)chroman-7-sulfonamide]: the IC50 was determined as 1.34 µM on Nav 1.5 (read-out: Nav1.5 IC50) and 0.031 µM on Nav 1.7.

As to `COCCc1cc(C(F)(F)F)ccc1[C@H]1CCOc2cc(S(=O)(=O)Nc3ncccn3)ccc21` (racemic) [Example 135, (R/S)-4-(2-(2-methoxyethyl)-4-(trifluoromethyl)phenyl)-N-(pyrimidin-2-yl)chroman-7-sulfonamide], the figures for the IC50 on Nav 1.5 (setting [1]) and on Nav 1.7 were above 10 µM and 0.708 µM, respectively.

At Nav 1.5, `COCCc1cc(C(F)(F)F)ccc1[C@H]1CCOc2cc(S(=O)(=O)Nc3ncc(F)cn3)ccc21` (racemic) [Example 136, (R/S)—N-(5-fluoropyrimidin-2-yl)-4-(2-(2-methoxyethyl)-4-(trifluoromethyl)phenyl)chroman-7-sulfonamide] showed an inhibition at 10 µM of 33%. Further, the IC50 at Nav 1.7 turned out to be 0.655 µM.

Consider `COCCc1cc(C(F)(F)F)ccc1[C@H]1CCOc2cc(S(=O)(=O)Nc3cccc(F)n3)ccc21` (racemic) [Example 137, (R/S)—N-(6-fluoropyridin-2-yl)-4-(2-(2-methoxyethyl)-4-(trifluoromethyl)phenyl)chroman-7-sulfonamide], for which the IC50 on Nav 1.5 (read-out: Nav1.5 IC50) amounted to 3.64 µM; at Nav 1.7, 0.012 µM.

For `COCCc1cc(C(F)(F)F)ccc1[C@H]1CCOc2cc(S(=O)(=O)Nc3ccncn3)ccc21` (racemic) [Example 138, (R/S)-4-(2-(2-methoxyethyl)-4-(trifluoromethyl)phenyl)-N-(pyrimidin-4-yl)chroman-7-sulfonamide], the IC50 on Nav 1.5 (setting [1]) is above 10 µM; on Nav 1.7 it was 0.588 µM.

Take `COCCc1cc(C(F)(F)F)ccc1[C@H]1CCOc2cc(S(=O)(=O)Nc3cccnn3)ccc21` (racemic) [Example 139, (R/S)-4-(2-(2-methoxyethyl)-4-(trifluoromethyl)phenyl)-N-(pyridazin-3-yl)chroman-7-sulfonamide]: the half-inhibitory concentration (IC50) on Nav 1.5 (setting [1]) was above 10 µM; at Nav 1.7 it was 0.033 µM.

Consider `Cc1cccc(NS(=O)(=O)c2ccc3c(c2)OCC[C@@H]3c2ccc(C(F)(F)F)cc2-c2ccnn2C)n1` [Example 20, (S&R)-4-(2-(1-methyl-1H-pyrazol-5-yl)-4-(trifluoromethyl)phenyl)-N-(6-methylpyridin-2-yl)chroman-7-sulfonamide], for which, on Nav 1.7, the IC50 stood at 0.245 µM.

Turning to `O=C(O)c1ccc(-c2cc(C(F)(F)F)ccc2[C@@H]2CCOc3cc(S(=O)(=O)Nc4ncccn4)ccc32)cc1` [Example-187, (S&R)-2′-(7-(N-(pyrimidin-2-yl)sulfamoyl)chroman-4-yl)-5′-(trifluoromethyl)-[1,1′-biphenyl]-4-carboxylic acid], at Nav 1.7, the IC50 is 2.6 µM.
